Data published in US20130236568A1, “PHOSPHAPLATINS HAVING ANTI-ANGIOGENIC, ANTI-METASTATIC, AND PRO-APOPTOTIC PROPERTIES AND USES THEREOF” (Ohio University, priority 2011, published 2013).

Key:
Type in all cases: cell-based, human
p53 = assay: Expression of key genes with and without p53 inhibitor (Table 3): p53; settings: positive = manifold increase, negative = decrease vs untreated cells
Method: (§1) Quantitative real-time PCR experiments were performed to estimate the expression of a selection of targeted genes. HUVEC cells (Lonza Walkersville, Frederick, Md.) were cultured on 0.1% gelatin-coated petri dishes by following standard protocols recommended by the vendor in a humidified incubator by maintaining 5% CO2 at 37° C. Human epithelial ovarian cancer cells (A2780) and cisplatin-resistant cells (A2780/C30) were cultured in RPMI 1640 with or without cisplatin (7 μM) and pyrodach-4 (180 μM) for 0, 3, 12 and 24 hours. […] HUVECs were treated with or without cisplatin (7 μM) or pyrodach-4 (90 or 180 μM) for various durations ranging from 1 hr. to 6 hrs.
(§2) Both treated and untreated cancer cells were maintained in RPMI 1640 medium with 10% fetal bovine serum, 2 μmol L-glutamine, 100 units/mL penicillin-streptomycin and 0.25 units/mL insulin solution, at 37° C. with 5% CO2. RNA was isolated from both the treated and untreated cells. […] The quantity and purity of RNA were determined by UV spectroscopy (NanoDrop 2000 Thermo Scientific, Wilmington, Del.). A minimum absorbance ratio index (ratio of the absorbance measured at 260 nm over that at 280 nm) of 1.9 was used as an acceptable purity. […] The target gene was labeled with a blue dye (FAM, absorbance: 494 nm, emission: 518 nm) while the reference gene was tagged with a green dye (VIC, absorbance: 538 nm, emission: 554 nm). […]

Fas [1] = assay: Quantitative real-time PCR, Fas expression in HUVEC; settings: HUVEC treated with pyrodach-4
Method: (§3) Evaluations of selected gene expressions in Human Umbilical Vein Endothelial Cells (HUVEC) and Human Ovarian Cancer Cells by quantitative reverse transcriptase polymerase chain reaction (PCR)
(§4) Quantitative real-time PCR experiments were performed to estimate the expression of a selection of targeted genes. HUVEC cells (Lonza Walkersville, Frederick, Md.) were cultured on 0.1% gelatin-coated petri dishes by following standard protocols recommended by the vendor in a humidified incubator by maintaining 5% CO2 at 37° C. […]
as §2, with “CO2.” for “CO2. RNA was isolated from both the treated and untreated cells.”
(§5) The threshold cycle number (Ct), the point at which the fluorescence of the qPCR reaction just exceeds the threshold fluorescence of the detection system, was determined. […]

Caspase 9 = assay: Expression of key genes with and without p53 inhibitor (Table 3): Caspase 9; settings: positive = manifold increase, negative = decrease vs untreated cells
Method: as §1, §2

PUMA [2] = assay: Quantitative real-time PCR, PUMA expression in HUVEC; settings: HUVEC treated with pyrodach-4
Method: as §3, §4
as §2, with “CO2.” for “CO2. RNA was isolated from both the treated and untreated cells.”
as §5

VEGFR2 gene = assay: Quantitative real-time PCR, VEGFR2 gene expression in A2780 cells
Method: as §3, §1
Both treated and untreated cancer cells were maintained in RPMI 1640 medium with 10% fetal bovine serum, 2 μmol L-glutamine, 100 units/mL penicillin-streptomycin and 0.25 units/mL insulin solution, at 37° C. with 5% CO2. RNA was isolated from both the treated and untreated cells. […] The quantity and purity of RNA were determined by UV spectroscopy (NanoDrop 2000 Thermo Scientific, Wilmington, Del.). A minimum absorbance ratio index (ratio of the absorbance measured at 260 nm over that at 280 nm) of 1.9 was used as an acceptable purity. […] The target gene was labeled with a blue dye (FAM, absorbance: 494 nm, emission: 518 nm) while the reference gene was tagged with a green dye (VIC, absorbance: 538 nm, emission: 554 nm). The cDNA concentrations were selected such that the threshold cycle (Ct) values for the target genes were between 17 and 32, most sensitive for the fluorescence detection by ABI StepOnePlus™ instrument used for the measurements.
as §5

FasL = assay: Expression of key genes with and without p53 inhibitor (Table 3): FasL; settings: positive = manifold increase, negative = decrease vs untreated cells
Method: as §1, §2

VEGFR-2 = assay: Expression of key genes with and without p53 inhibitor (Table 3): VEGFR-2; settings: positive = manifold increase, negative = decrease vs untreated cells
Method: as §1, §2

PUMA [3] = assay: Expression of key genes with and without p53 inhibitor (Table 3): PUMA; settings: positive = manifold increase, negative = decrease vs untreated cells
Method: as §1, §2

BAX = assay: Expression of key genes with and without p53 inhibitor (Table 3): BAX; settings: positive = manifold increase, negative = decrease vs untreated cells
Method: as §1, §2

Fas [4] = assay: Expression of key genes with and without p53 inhibitor (Table 3): Fas; settings: positive = manifold increase, negative = decrease vs untreated cells
Method: as §1, §2

BID = assay: Expression of key genes with and without p53 inhibitor (Table 3): BID; settings: positive = manifold increase, negative = decrease vs untreated cells
Method: as §1, §2

Substance: trans-(±)-1,2-cyclohexanediamine-trans-dihydroxo(pyrophosphato) platinum(IV) [Pyrodach-4]
- Expression of p53 (p53; Pyrodach-4 + PFT-α): 2.1
- Expression of p53 (p53; Pyrodach-4 treatment only): 1.8
- Over-expression of Fas (Fas [1]): 2-5 fold
- Expression of Caspase 9 (Caspase 9; Pyrodach-4 + PFT-α): 1.0
- Expression of Caspase 9 (Caspase 9; Pyrodach-4 treatment only): 2.0
- Over-expression of PUMA (PUMA [2]): 10-15 fold
- Normalized expression of VEGFR2 gene (VEGFR2 gene; A2780 (cisplatin-sensitive), positive = manifold increase, negative = relative decrease vs untreated cells, cisplatin 7 μM, pyrodach-4 180 μM): −2.0
- Suppression of VEGFR-2 gene expression (VEGFR2 gene; cisplatin-sensitive human ovarian cancer cells): ≤ 50%
- Expression of FasL (FasL; Pyrodach-4 + PFT-α): undetectable
- Expression of FasL (FasL; Pyrodach-4 treatment only): 4.6
- Expression of VEGFR-2 (VEGFR-2; Pyrodach-4 + PFT-α): −1.6
- Expression of VEGFR-2 (VEGFR-2; Pyrodach-4 treatment only): −1.9
- Expression of PUMA (PUMA [3]; Pyrodach-4 + PFT-α): 4.4
- Expression of PUMA (PUMA [3]; Pyrodach-4 treatment only): 16.6
- Expression of BAX (BAX; Pyrodach-4 + PFT-α (p53 inhibitor)): 1.0
- Expression of BAX (BAX; Pyrodach-4 treatment only, cell line not given): 2.8
- Expression of Fas (Fas [4]; Pyrodach-4 + PFT-α): 5.5
- Expression of Fas (Fas [4]; Pyrodach-4 treatment only): 11.0
- Expression of BID (BID; Pyrodach-4 + PFT-α): 1.0
- Expression of BID (BID; Pyrodach-4 treatment only): 1.8
